From patent publication US20230078702A1, “USE OF MITOXANTRONE HYDROCHLORIDE LIPOSOME FOR TREATING BREAST CANCER” (CSPC ZHONGQI PHARMACEUTICAL TECHNOLOGY (SHIJIAZHUANG) CO., …, priority 2020, published 2023)
Where a name gives a salt, the structure may show the parent alone.

Tests used:
[1] = system: patients with advanced recurrent or metastatic breast cancer; assay: Efficacy evaluation (RECIST 1.1) in randomized, open-labeled, active controlled clinical study; assay type: in vivo, human; set-up: disease control rate (PR+SD): concentration or dose not given beside the values
Method: A tumor assessment was performed at baseline.
During the treatment period, the efficacy evaluation was performed once every two cycles; in addition, when the efficacy evaluation result was PR or CR, the efficacy should be radiologically confirmed after 4 weeks. After the completion of the treatment, the evaluation was performed every 3 months until disease progression. Tumor evaluation was performed according to RECIST 1.1 criteria.
Primary efficacy endpoint: objective response rate (ORR), referring to the ratio of subjects reaching PR and CR.
Secondary efficacy endpoint: progression-free survival (PFS), referring to the time from the start of randomization to disease progression or death.

[2] = system: patients with advanced recurrent or metastatic breast cancer; settings: human, in vivo
Method: The study is a randomized, open-labeled, active controlled, single center study to evaluate the safety and efficacy of the mitoxantrone hydrochloride liposome injection in patients with advanced recurrent or metastatic breast cancer.
Investigational product: mitoxantrone hydrochloride liposome injection (PLM60 (10 mg/10 mL/vial)) was added to 250 mL of 5% glucose at a dose of 20 mg/m^2 and was administered intravenously over 1 h.
Reference product: mitoxantrone hydrochloride injection (5 mg/5 mL/vial, manufactured by Sichuan Sunnyhope Pharmaceutical, Inc., supplied by CSPC ZHONGQI Pharmaceutical Technology (Shijiazhuang) Co., Ltd., Lot No. 1501201) was added to 100 mL of 5% glucose injection at a dose of 14 mg/m^2 and was administered intravenously over 30 min.
The safety assessment indicators included: vital signs, adverse events, laboratory tests (complete blood test, routine urinalysis, blood biochemistry, electrocardiogram, echocardiogram), and early withdrawal. Safety assessment criteria: NCI-CTC 4.0.
For the drug mitoxantrone, the most serious adverse event is cardiotoxicity. Clinical studies and practical observations have shown that the cardiotoxicity caused by anthracyclines are mainly progressive and irreversible. Especially anthracyclines can easily cause cardiac damage at first use. Cardiotoxicity is a common concern for clinicians since it is a long-term cumulative dose-limiting toxicity. The incidence of increased troponin T and the incidence of increased brain natriuretic peptide were used as indices for examining cardiotoxicity in this trial. The change of the cardiac troponin T level can reflect myocardium damage with high sensitivity; brain natriuretic peptide is a polypeptide hormone secreted by cardiomyocytes in the heart ventricles in response to stretching caused by increased ventricular blood volume and increased ventricular pressure.

## O=C1c2c(O)ccc(O)c2C(=O)c2c(NCCNCCO)ccc(NCCNCCO)c21 [Control group, mitoxantrone hydrochloride]
[1]; 3 months, FAS (N = 60)
  Progression-free survival rate: 26.7%
[1]; 3 months, PPS (N = 58)
  Progression-free survival rate: 28.6
[1]; 6 months, FAS (N = 60), hydrochloride
  Progression-free survival rate: 20.0%
[1]; 6 months, FAS (N = 60), listed as control group, hydrochloride
  Progression-free survival rate: 20%
[1]; 6 months, PPS (N = 58)
  Progression-free survival rate: 21.4
[1]; 12 months, FAS (N = 60)
  Progression-free survival rate: 0%
[1]; 12 months, PPS (N = 58)
  Progression-free survival rate: 0
[1]; 30 subjects per group
  disease control rate (PR+SD): 30%
  objective response rate (ORR): 6.7%
[1]; FAS (N = 60)
  Best overall response NA, number of subjects: 2
  Best overall response NA, percent of subjects: (6.7%)
  Best overall response PD, number of subjects: 19
  Best overall response PD, percent of subjects: (63.3%)
  Best overall response PR, percent of subjects: (6.7%)
  Best overall response SD, number of subjects: 7
  Best overall response SD, percent of subjects: (23.3%)
  Median PFS: 1.86 month
  Number of events (%) (PFS), percent: 83.3%
  Number of events (PFS): 25
[1]; FAS (N = 60), liposome 20 mg/m^2 or injection 14 mg/m^2 i.v. once every 4 weeks
  Best overall response PR, number of subjects: 2
[1]; PPS (N = 58)
  Best overall response NA, number of subjects: 0
  Best overall response NA, percent of subjects: (0.0) %
  Best overall response PD, number of subjects: 19
  Best overall response PD, percent of subjects: (67.9%)
  Best overall response PR, number of subjects: 2
  Best overall response PR, percent of subjects: (7.1%)
  Best overall response SD, number of subjects: 7
  Best overall response SD, percent of subjects: (28.6%)
  Median PFS: 1.86 month
  Number of events (%) (PFS), percent: 82.14%
  Number of events (PFS): 23
[2]
  Anemia, number of subjects: 14
  Decreased neutrophil count, number of subjects: 29
  Decreased platelet count, number of subjects: 16
  Decreased white blood cell count, number of subjects: 29
  Fever, number of subjects: 3
  Incidence of fever: (10.0%)
  Incidence of increased alanine aminotransferase: (26.70%)
  Incidence of increased blood bilirubin: (20.00%)
  Incidence of skin hyperpigmentation: 3.3%
  Increased alanine aminotransferase, number of subjects: 8
  Increased aspartate aminotransferase, number of subjects: 16
  Increased blood bilirubin, number of subjects: 6
  Increased brain natriuretic peptide, number of subjects: 10
  Increased conjugated bilirubin, number of subjects: 17
  Increased troponin T, number of subjects: 11
  overall incidence rate of adverse events: 100%
